From patent publication US5604234A, “Substituted thiol macrolactam immunomodulators” (Abbott Laboratories, priority 1995, dated 1997)

System: human mixed lymphocyte reaction (MLR)
Assay: human mixed lymphocyte reaction (MLR), serum free variation
Assay type: cell-based
Settings: Homo sapiens, Lymphocyte, serum-free medium AIM V, Table 3
Experimental: In vitro Assay of Biological Activity (Serum Free MLR)
The in viitro immunosuppressant activity of the compounds of the present invention can also be determined using a variation of the human mixed lymphocyte reaction (MLR) assay described by Kino, T. et al. in Transplantation Proceedings, XIX(5):36-39, Suppl. 6 (1987). In this assay, the cell culture was performed in a serum-free medium, AIM V (GibcoBRL Life Technologies, Grand Island, N.Y.), instead of the usual RPMI 1640 plus 10% heat-inactivated fetal bovine serum medium. The final cell concentrations of the responder and stimulator peripheral blood mononuclear cells were, respectively, 5×10^5/mL and 2×10^6/mL of cells pooled from four donors.

| Compound | IC50 |
| --- | --- |
| CCC1C=C(C)CC(C)CC(OC)C2OC(O)(C(=O)C(=O)N3CCCCC3C(=O)OC(C(C)=CC3CCC(SCCC(=O)OCCOC)C(OC)C3)C(C)C(O)CC1=O)C(C)CC2OC (centres unmarked) [Example 11] | 2.1 nM |
| CCC1C=C(C)CC(C)CC(OC)C2OC(O)(C(=O)C(=O)N3CCCCC3C(=O)OC(C(C)=CC3CCC(SCCC(=O)OCC(F)(F)F)C(OC)C3)C(C)C(O)CC1=O)C(C)CC2OC (centres unmarked) [Example 12] | 1.7 nM |
| CCC1C=C(C)CC(C)CC(OC)C2OC(O)(C(=O)C(=O)N3CCCCC3C(=O)OC(C(C)=CC3CCC(SCCC(=O)OCCO)C(OC)C3)C(C)C(O)CC1=O)C(C)CC2OC (centres unmarked) [Example 13] | 3.1 nM |
| CCC1C=C(C)CC(C)CC(OC)C2OC(O)(C(=O)C(=O)N3CCCCC3C(=O)OC(C(C)=CC3CCC(SCCC(=O)OC4CCCCC4)C(OC)C3)C(C)C(O)CC1=O)C(C)CC2OC (centres unmarked) [Example 14] | 6.2 nM |
| CCC1C=C(C)CC(C)CC(OC)C2OC(O)(C(=O)C(=O)N3CCCCC3C(=O)OC(C(C)=CC3CCC(SCCC(=O)OC(C)(C)C)C(OC)C3)C(C)C(O)CC1=O)C(C)CC2OC (centres unmarked) [Example 15] | 1.5 nM |
| CCC1C=C(C)CC(C)CC(OC)C2OC(O)(C(=O)C(=O)N3CCCCC3C(=O)OC(C(C)=CC3CCC(SCCC(=O)OCCN(C)C)C(OC)C3)C(C)C(O)CC1=O)C(C)CC2OC (centres unmarked) [Example 16] | 2.2 nM |
| CCC1C=C(C)CC(C)CC(OC)C2OC(O)(C(=O)C(=O)N3CCCCC3C(=O)OC(C(C)=CC3CCC(SCCC(=O)OCCCS(=O)(=O)O)C(OC)C3)C(C)C(O)CC1=O)C(C)CC2OC (centres unmarked) [Example 17] | 31.2 nM |
| CCC1C=C(C)CC(C)CC(OC)C2OC(O)(C(=O)C(=O)N3CCCCC3C(=O)OC(C(C)=CC3CCC(SCCC(=O)O)C(OC)C3)C(C)C(O)CC1=O)C(C)CC2OC (centres unmarked) [Example 19] | 2.9 nM |
| CCC1C=C(C)CC(C)CC(OC)C2OC(O)(C(=O)C(=O)N3CCCCC3C(=O)OC(C(C)=CC3CCC(SCCC(=O)OC(C)C)C(OC)C3)C(C)C(O)CC1=O)C(C)CC2OC (centres unmarked) [Example 20] | 12.7 nM |
| CCC(CC)OC(=O)CCSC1CCC(C=C(C)C2OC(=O)C3CCCCN3C(=O)C(=O)C3(O)OC(C(OC)CC(C)CC(C)=CC(CC)C(=O)CC(O)C2C)C(OC)CC3C)CC1OC (centres unmarked) [Example 21] | 5.4 nM |
| CCC1C=C(C)CC(C)CC(OC)C2OC(O)(C(=O)C(=O)N3CCCCC3C(=O)OC(C(C)=CC3CCC(SCCC(N)=O)C(OC)C3)C(C)C(O)CC1=O)C(C)CC2OC (centres unmarked) [Example 22] | 0.02 nM |
| CCC1C=C(C)CC(C)CC(OC)C2OC(O)(C(=O)C(=O)N3CCCCC3C(=O)OC(C(C)=CC3CCC(SCCC(=O)N4CCOCC4)C(OC)C3)C(C)C(O)CC1=O)C(C)CC2OC (centres unmarked) [Example 23] | 0.04 nM |
| CCC1C=C(C)CC(C)CC(OC)C2OC(O)(C(=O)C(=O)N3CCCCC3C(=O)OC(C(C)=CC3CCC(SCCC(=O)NO)C(OC)C3)C(C)C(O)CC1=O)C(C)CC2OC (centres unmarked) [Example 24] | 0.8 nM |
| CCC1C=C(C)CC(C)CC(OC)C2OC(O)(C(=O)C(=O)N3CCCCC3C(=O)OC(C(C)=CC3CCC(SCCC(=O)N(C)O)C(OC)C3)C(C)C(O)CC1=O)C(C)CC2OC (centres unmarked) [Example 25] | 0.2 nM |
| CCC1C=C(C)CC(C)CC(OC)C2OC(O)(C(=O)C(=O)N3CCCCC3C(=O)OC(C(C)=CC3CCC(SCCC(=O)N(O)C(C)C)C(OC)C3)C(C)C(O)CC1=O)C(C)CC2OC (centres unmarked) [Example 26] | 7 nM |
| CCC1C=C(C)CC(C)CC(OC)C2OC(O)(C(=O)C(=O)N3CCCCC3C(=O)OC(C(C)=CC3CCC(SCC(=O)OCc4ccccc4)C(OC)C3)C(C)C(O)CC1=O)C(C)CC2OC (centres unmarked) [Example 27] | 3.7 nM |
| CCC1C=C(C)CC(C)CC(OC)C2OC(O)(C(=O)C(=O)N3CCCCC3C(=O)OC(C(C)=CC3CCC(SCC(=O)OC)C(OC)C3)C(C)C(O)CC1=O)C(C)CC2OC (centres unmarked) [Example 28] | 1.6 nM |
| CCC1C=C(C)CC(C)CC(OC)C2OC(O)(C(=O)C(=O)N3CCCCC3C(=O)OC(C(C)=CC3CCC(SCC(=O)OC(C)(C)C)C(OC)C3)C(C)C(O)CC1=O)C(C)CC2OC (centres unmarked) [Example 29] | 1.8 nM |
| CCC1C=C(C)CC(C)CC(OC)C2OC(O)(C(=O)C(=O)N3CCCCC3C(=O)OC(C(C)=CC3CCC(SCC(=O)O)C(OC)C3)C(C)C(O)CC1=O)C(C)CC2OC (centres unmarked) [Example 30] | 9.1 nM |
| CCOC(=O)CSC1CCC(C=C(C)C2OC(=O)C3CCCCN3C(=O)C(=O)C3(O)OC(C(OC)CC(C)CC(C)=CC(CC)C(=O)CC(O)C2C)C(OC)CC3C)CC1OC (centres unmarked) [Example 31] | 8.2 nM |
| CCC1C=C(C)CC(C)CC(OC)C2OC(O)(C(=O)C(=O)N3CCCCC3C(=O)OC(C(C)=CC3CCC(SCC(=O)OC(C)C)C(OC)C3)C(C)C(O)CC1=O)C(C)CC2OC (centres unmarked) [Example 32] | 6.5 nM |
| CCC1C=C(C)CC(C)CC(OC)C2OC(O)(C(=O)C(=O)N3CCCCC3C(=O)OC(C(C)=CC3CCC(SCC(=O)OCC(F)(F)F)C(OC)C3)C(C)C(O)CC1=O)C(C)CC2OC (centres unmarked) [Example 33] | 47 nM |

The next lines start with the values.

| IC50 | Compound |
| --- | --- |
| 60.8 nM | CCC1C=C(C)CC(C)CC(OC)C2OC(O)(C(=O)C(=O)N3CCCCC3C(=O)OC(C(C)=CC3CCC(SCC(=O)OCCO)C(OC)C3)C(C)C(O)CC1=O)C(C)CC2OC (centres unmarked) [Example 34] |
| 27.1 nM | CCC1C=C(C)CC(C)CC(OC)C2OC(O)(C(=O)C(=O)N3CCCCC3C(=O)OC(C(C)=CC3CCC(SCC(=O)OCCOC)C(OC)C3)C(C)C(O)CC1=O)C(C)CC2OC (centres unmarked) [Example 35] |
| 24.2 nM | CCC1C=C(C)CC(C)CC(OC)C2OC(O)(C(=O)C(=O)N3CCCCC3C(=O)OC(C(C)=CC3CCC(SCC(=O)OCCN(C)C)C(OC)C3)C(C)C(O)CC1=O)C(C)CC2OC (centres unmarked) [Example 36] |
| 16.4 nM | CCC1C=C(C)CC(C)CC(OC)C2OC(O)(C(=O)C(=O)N3CCCCC3C(=O)OC(C(C)=CC3CCC(SCC(=O)OCCOCc4ccccc4)C(OC)C3)C(C)C(O)CC1=O)C(C)CC2OC (centres unmarked) [Example 37] |
| 7.5 nM | CCC1C=C(C)CC(C)CC(OC)C2OC(O)(C(=O)C(=O)N3CCCCC3C(=O)OC(C(C)=CC3CCC(SCC(=O)NO)C(OC)C3)C(C)C(O)CC1=O)C(C)CC2OC (centres unmarked) [Example 38] |
| 4.8 nM | CCC1C=C(C)CC(C)CC(OC)C2OC(O)(C(=O)C(=O)N3CCCCC3C(=O)OC(C(C)=CC3CCC(SCC(=O)N(C)O)C(OC)C3)C(C)C(O)CC1=O)C(C)CC2OC (centres unmarked) [Example 39] |
| 14.9 nM | CCC1C=C(C)CC(C)CC(OC)C2OC(O)(C(=O)C(=O)N3CCCCC3C(=O)OC(C(C)=CC3CCC(SCC(C)C(=O)OC)C(OC)C3)C(C)C(O)CC1=O)C(C)CC2OC (centres unmarked) [Example 40] |
| 46.4 nM | CCOC(=O)C(C)CSC1CCC(C=C(C)C2OC(=O)C3CCCCN3C(=O)C(=O)C3(O)OC(C(OC)CC(C)CC(C)=CC(CC)C(=O)CC(O)C2C)C(OC)CC3C)CC1OC (centres unmarked) [Example 41] |
| 63.4 nM | CCC1C=C(C)CC(C)CC(OC)C2OC(O)(C(=O)C(=O)N3CCCCC3C(=O)OC(C(C)=CC3CCC(SCC(C)C(=O)OCc4ccccc4)C(OC)C3)C(C)C(O)CC1=O)C(C)CC2OC (centres unmarked) [Example 42] |
| 22.6 nM | CC[C@@H]1/C=C(\C)C[C@H](C)C[C@H](OC)[C@H]2O[C@@](O)(C(=O)C(=O)N3CCCC[C@H]3C(=O)O[C@H](/C(C)=C/[C@@H]3CC[C@H](SCC(C)C(=O)O)[C@H](OC)C3)[C@H](C)[C@@H](O)CC1=O)[C@H](C)C[C@@H]2OC (some centres unmarked) [Example 43] |
| 0.9 nM | CC[C@@H]1/C=C(\C)C[C@H](C)C[C@H](OC)[C@H]2O[C@@](O)(C(=O)C(=O)N3CCCC[C@H]3C(=O)O[C@H](/C(C)=C/[C@@H]3CC[C@H]([S+]([O-])c4ccc(O)cc4)[C@H](OC)C3)[C@H](C)[C@@H](O)CC1=O)[C@H](C)C[C@@H]2OC (some centres unmarked) [Example 48] |
| 2.5 nM | CC[C@@H]1/C=C(\C)C[C@H](C)C[C@H](OC)[C@H]2O[C@@](O)(C(=O)C(=O)N3CCCC[C@H]3C(=O)O[C@H](/C(C)=C/[C@@H]3CC[C@H](S(=O)(=O)c4ccc(O)cc4)[C@H](OC)C3)[C@H](C)[C@@H](O)CC1=O)[C@H](C)C[C@@H]2OC [Example 49] |
| 0.24 nM | CC[C@@H]1/C=C(\C)C[C@H](C)C[C@H](OC)[C@H]2O[C@@](O)(C(=O)C(=O)N3CCCC[C@H]3C(=O)O[C@H](/C(C)=C/[C@@H]3CC[C@H]([S+]([O-])CCO)[C@H](OC)C3)[C@H](C)[C@@H](O)CC1=O)[C@H](C)C[C@@H]2OC (some centres unmarked) [Example 50] |
| 0.17 nM | CC[C@@H]1/C=C(\C)C[C@H](C)C[C@H](OC)[C@H]2O[C@@](O)(C(=O)C(=O)N3CCCC[C@H]3C(=O)O[C@H](/C(C)=C/[C@@H]3CC[C@H](S(=O)(=O)CCO)[C@H](OC)C3)[C@H](C)[C@@H](O)CC1=O)[C@H](C)C[C@@H]2OC [Example 51] |
| 1.8 nM | CC[C@@H]1/C=C(\C)C[C@H](C)C[C@H](OC)[C@H]2O[C@@](O)(C(=O)C(=O)N3CCCC[C@H]3C(=O)O[C@H](/C(C)=C/[C@@H]3CC[C@H]([S+]([O-])CCCO)[C@H](OC)C3)[C@H](C)[C@@H](O)CC1=O)[C@H](C)C[C@@H]2OC (some centres unmarked) [Example 52] |
| 0.04 nM | CC[C@@H]1/C=C(\C)C[C@H](C)C[C@H](OC)[C@H]2O[C@@](O)(C(=O)C(=O)N3CCCC[C@H]3C(=O)O[C@H](/C(C)=C/[C@@H]3CC[C@H](S(=O)(=O)CCCO)[C@H](OC)C3)[C@H](C)[C@@H](O)CC1=O)[C@H](C)C[C@@H]2OC [Example 53] |
| 8.1 nM | CC[C@@H]1/C=C(\C)C[C@H](C)C[C@H](OC)[C@H]2O[C@@](O)(C(=O)C(=O)N3CCCC[C@H]3C(=O)O[C@H](/C(C)=C/[C@@H]3CC[C@H]([S+]([O-])CC(=O)OCc4ccccc4)[C@H](OC)C3)[C@H](C)[C@@H](O)CC1=O)[C@H](C)C[C@@H]2OC (some centres unmarked) [Example 55] |
| 8.1 nM | CC[C@@H]1/C=C(\C)C[C@H](C)C[C@H](OC)[C@H]2O[C@@](O)(C(=O)C(=O)N3CCCC[C@H]3C(=O)O[C@H](/C(C)=C/[C@@H]3CC[C@H](S(=O)(=O)CC(=O)OCc4ccccc4)[C@H](OC)C3)[C@H](C)[C@@H](O)CC1=O)[C@H](C)C[C@@H]2OC [Example 56] |
| 2 nM | CC[C@@H]1/C=C(\C)C[C@H](C)C[C@H](OC)[C@H]2O[C@@](O)(C(=O)C(=O)N3CCCC[C@H]3C(=O)O[C@H](/C(C)=C/[C@@H]3CC[C@H](S(=O)(=O)CC(=O)OC)[C@H](OC)C3)[C@H](C)[C@@H](O)CC1=O)[C@H](C)C[C@@H]2OC [Example 57] |
